Reference: USRE32992E, “Peptide process for preparation thereof and use thereof” (priority 1978, dated 1989)

Test system: reticuloendotherial system
Assay: Blood stream clearance of carbon
Type: in vivo, Mice (DDY male 5-6 W)
Description: 1. Carbon suspension. Rotoring drawing ink (170 mg carbon/ml.) was diluted to 1/5 of the original concentration in saline containing 1% gelatin.
2. 0.1% aqueous sodium carbonate solution.
Mice (DDY male 5-6 W) were injected via the tail vein with a dose of 0.01 ml/g body weight of carbon. Blood samples were taken by means of a pointed capillary pippet calibrated to hold a 50 μl and previously washed in heparin. This was plunged into the retrooribital venous sinus at the nasal angle of the eye. The samples were removed at 3 and to 6 min.
The blood was immediately discharged into 3.0 ml. of the sodium carbonate solution. This hemolyszed the blood and allowed the quantitation of carbon. The samples were then read in a spectrophotometer at 660 nm, the log concentration being obtained from a previously determined standard curve. The clearance value K may be determined by plotting log carbon concentration against time according to the following relationship; [formula] in which T1 and T2 represent the time in min when the sample were withdrawn and C1 and C2 represent the concentrations of carbon in the blood at the time T1 and T2, respectively.
The aqueous solution of the test compound as given was administered subcutaneously to mice. Twenty four hours later, blood stream clearance of carbon was measured. K value obtained with treated mice was compared with that of control mice.

With Tuftsin as the molecule, how does the Ktreated/Kcontrol (dose 125 mg/mouse) read?
Its Ktreated/Kcontrol is 1.0.

What about the Ktreated/Kcontrol (dose 400 mg/mouse) of the same molecule?
The Ktreated/Kcontrol was 1.4.

With `c1ccc([C@H]2CN3CCSC3=N2)cc1` [Levamisol] as the molecule, how does the Ktreated/Kcontrol (dose 10 mg/mouse) read?
The Ktreated/Kcontrol was “death”.
